Experimental data as given in patent US8986687B2, “Compounds inhibiting CD95 signaling for the treatment of pancreatic cancer” (Deutsches Krebsforschungszentrum, priority 2009, dated 2015).

Tested on: ERK pathway / phosphorylation of ERK
Assay: Western blotting of ERK phosphorylation in pancreatic cells
Assay type: cell-based
Settings: PANC1 and Colo357 cells
Excerpt: Phosphorylation of AKT and ERK is shown in PanD3, PANC1 and Colo357 cells upon treatment with different concentrations of CD95L-T4 at the indicated time points. P: phosphorylated; T: total.
A) Effect of the PI3K and MEK inhibitors (LY2940092 and PD98059 respectively) on CD95-induced phosphorylation of AKT and ERK is shown in PANC1 and Colo357. Inhibition of PI3K enhances ERK phosphorylation. P: phosphorylated; T: total.
It has been known that low concentrations of CD95L are sufficient to efficiently stimulate the non-apoptotic pathways downstream of CD95, being those pathways inhibited by higher concentrations. […]
Knockdown experiments were performed by transient transfection with Lipofectamine 2000™ (Invitrogen Life Technologies) following the instruction manual. […] After transient transfection with the different siRNAs cells were cultured for 72 h before treated with CD95LT4 (20 ng/ml), migration was analyzed 36 h after treatment with a two dimensional migration assay. Knockdown efficiency was controlled by quantitative real-time PCR.
Proteins were transferred from polyacrylamide gels to nitrocellulose membranes by electroblotting. […] The HRP signal was detected by incubation with ECL solution and consecutive exposure to Amersham Hyperfim X-ray films Protein extraction and immunoblotting was performed as previously described. […]

Q: How did the “effect of PI3K inhibition on CD95-induced ERK phosphorylation” value turn out when O=c1cc(N2CCOCC2)oc2c(-c3ccccc3)cccc12 [LY2940092] was run?
A: The value was “enhances”.
